Experimental data: patent US12285490B2, “ASH1L degraders and methods of treatment therewith” (The Regents of the University of Michigan, priority 2017, dated 2025)

Columns and labels:
ASH1L = biological target: T1, ASH1L (Homo sapiens, UniProt Q9NR48); experiment: Western blot of ASH1L degradation in HeLa cells; assay type: cell-based
T1 construct: endogenous in cells; host or cells: HeLa cells
Description: The 2.5×10^5 HeLa cells were treated with compounds for 24 h followed by the lysis in the RIPA buffer. The protein samples were loaded and run in the 3-8% Tris-acetate gel. After transferring proteins to the PVDF membrane, 5% bovine serum albumin solution was used for blocking for 2 h at room temperature. The membranes were incubated with the ASH1L-specific antibody (Bethyl A301-749A) at 4° C. overnight and subsequently with the anti-rabbit secondary antibody (Cell signaling technology, 7074S). The blots were detected by an ECL detection system (Amersham, RPN2236).

MV4:11 = experiment: Cell viability assay (MTT) in MV4:11 cells; assay type: cell-based; settings: Homo sapiens, 168 h; MV4:11, after 7 days of treatment
Description: (§1) Human leukemia cells were plated at 1×10^5 cells/ml in 24-well plates, treated with 0.25% DMSO or compounds and cultured at 37° C. for 7-14 days. Every four days, the volume corresponding to 1×10^5 cells of DMSO-treated cells was spun down and resuspended in fresh media with fresh compound. At day 0 and each four day interval, 100 μl aliquots of the cell suspension were transferred to 96-well plates in quadruplicates. The quadruplicate samples were incubated for 3-4 days at 37° C., and then an MTI cell proliferation assay kit (Roche) was used to measure viable cells. Absorbance was read at 570 nm using a PHERAstar (BMG) microplate reader.

MOLM13 = experiment: Cell viability assay (MTT) in MOLM13 cells; assay type: cell-based; settings: Homo sapiens, MOLM-13, 168 h; MOLM13, after 7 days of treatment
Description: as §1

KOPN8 = experiment: Cell viability assay (MTT) in KOPN8 cells; assay type: cell-based; settings: Homo sapiens, KOPN-8, 168 h; KOPN8, after 7 days of treatment
Description: as §1

K562 control cell line = experiment: Cell viability assay (MTT) in K562 control cell line; assay type: cell-based; settings: Homo sapiens, 168 h, after 7 days of treatment
Description: as §1

[1] = system: acute leukemia cell lines; experiment: Cell viability / proliferation in various acute leukemia cell lines; assay type: cell-based, human; settings: after 7 days of treatment
Description: as §1

[2] = system: MLL fusion protein target genes in MOLM13 leukemia cell line; experiment: Quantitative RT-PCR gene expression in MOLM13 cells; assay type: cell-based, human; settings: after 6 days of treatment at 150 nM
Description: (§2) Total RNA was extracted from cells using the RNeasy mini kit (QIAGEN), and then 100-2000 ng of total RNA was reverse transcribed using the High Capacity cDNA Reverse Transcription Kit (Applied Biosystems) according to the manufacturer's protocol. Real-time PCR was performed using a CFX96 Real-Time PCR Detection System (Biorad). TaqMan Gene Expression Master Mix and TaqMan Gene Expression Assays were purchased from Thermo Fisher. Relative quantification of each gene transcript was carried out using the ΔΔCt method as described in the Biorad Real-Time PCR Applications Guide.

[3] = system: MV4:11 xenotransplantation model; experiment: In vivo efficacy in MV4:11 xenotransplantation model; settings: MV4:11 xenotransplantation model in mice, 25 mg/kg, i.p., q.d., 17 days of treatment
From the text: Exemplary compounds disclosed herein, were used for in vivo studies in mice. Immunocompromised 8-10 week-old female NSG mice were used for in vivo efficacy studies in accordance with IACUC guidelines. Luciferase expressing human MV4:11 leukemia cells (MV4:11-luc) were engrafted intravenously via tail vein injection (1×10^7 cells/animal). Five days after transplantation mice were randomly assigned to a vehicle control or a compound treatment group (6-7 animals per group). Animals in each of the treatment groups were administered vehicle or compound A of the present disclosure by intraperitoneal (i.p.) injection. Treatment was continued for 17 days. Body weight was measured daily, while mean luminescence signal was measured in all mice at days 10 and 17 after initiating the treatment. […]

[4] = system: acute leukemia cell lines; experiment: Differentiation of leukemia cells (Cytospin/Wright-Giemsa staining); assay type: cell-based, human; settings: after 7 days of treatment
Description: 1×10^5 of leukemia cells treated with compounds or DMSO were harvested and placed in a Shandon EZ Single Cytofunnel (Thermo Fisher). Samples were centrifuged at 600 rpm for 5 min. The slides were air dried before staining with a Hema-3 kit (Thermo Fisher).

[5] = system: MLL fusion target genes in MV4:11 MLL leukemia cell line; experiment: Quantitative RT-PCR gene expression in MV4:11 cells; assay type: cell-based, human; settings: after 7 days of treatment
Description: as §2

| Degradation of ASH1L (ASH1L; HeLa cells, after 24 h of treatment, FIG. 4 Panel A) | GI50 (MV4:11) [µM] | GI50 (MOLM13) [µM] | GI50 (K562 control cell line) [µM] | Degradation of ASH1L (ASH1L; FIG. 1, Western blot) | Compound | GI50 (KOPN8) [µM] | Cell proliferation / viability [1] | Expression of MLL fusion protein target genes [2] | Leukemia progression in vivo (bioluminescence signal, hCD45+ cells) [3] | Differentiation [4] | Expression of MLL fusion target genes [5] |
| --- | --- | --- | --- | --- | --- | --- | --- | --- | --- | --- | --- |
| induces degradation of ASH1L | 0.062 | 0.052 | > 6 | – | NC(=S)c1cccc(-c2cn(C3CCC(F)(F)CC3)c3cc(NC(=O)CCCCCCCCNC(=O)COc4cccc5c4C(=O)N(C4CCC(=O)NC4=O)C5=O)ccc23)c1 (stereo not drawn) [Compound 24, N-(3-(3-carbamothioylphenyl)-1-(4,4-difluorocyclohexyl)-1H-indol-6-yl)-9-(2-((2-(2,6-dioxopiperidin-3-yl)-1,3-dioxoisoindolin-4-yl)oxy)acetamido)nonanamide] | 0.103 | inhibits viability | downregulates the expression of MLL fusion protein target genes | blocks leukemia progression | – | – |
| – | – | – | – | Degradation of Ash1L induced | NC(=S)c1cccc(-c2cn(CC(CF)CF)c3cc(NC(=O)CCOCCOCCOCCOc4cccc5c4C(=O)N(C4CCC(=O)NC4=O)C5=O)ccc23)c1 (stereo not drawn) [Compound 1, N-(3-(3-carbamothioylphenyl)-1-(3-fluoro-2-(fluoromethyl)propyl)-1H-indol-6-yl)-3-(2-(2-(2-((2-(2,6-dioxopiperidin-3-yl)-1,3-dioxoisoindolin-4-yl)oxy)ethoxy)ethoxy)ethoxy)propanamide] | – | selectively blocks proliferation | – | – | induces differentiation | downregulates expression of MLL fusion target genes |
